# Results taken from US20080207728A1, “BICYCLIC ACYLTRYPTOPHANOLS” (priority 2006, published 2008).
# Biological target: T1, human FSH receptor (Homo sapiens, UniProt P23945)
# T1 construct: expressed in transfected cells; host or cells: CHO cells (hFSHR clone 16)
# T1 sequence (P23945 18-695): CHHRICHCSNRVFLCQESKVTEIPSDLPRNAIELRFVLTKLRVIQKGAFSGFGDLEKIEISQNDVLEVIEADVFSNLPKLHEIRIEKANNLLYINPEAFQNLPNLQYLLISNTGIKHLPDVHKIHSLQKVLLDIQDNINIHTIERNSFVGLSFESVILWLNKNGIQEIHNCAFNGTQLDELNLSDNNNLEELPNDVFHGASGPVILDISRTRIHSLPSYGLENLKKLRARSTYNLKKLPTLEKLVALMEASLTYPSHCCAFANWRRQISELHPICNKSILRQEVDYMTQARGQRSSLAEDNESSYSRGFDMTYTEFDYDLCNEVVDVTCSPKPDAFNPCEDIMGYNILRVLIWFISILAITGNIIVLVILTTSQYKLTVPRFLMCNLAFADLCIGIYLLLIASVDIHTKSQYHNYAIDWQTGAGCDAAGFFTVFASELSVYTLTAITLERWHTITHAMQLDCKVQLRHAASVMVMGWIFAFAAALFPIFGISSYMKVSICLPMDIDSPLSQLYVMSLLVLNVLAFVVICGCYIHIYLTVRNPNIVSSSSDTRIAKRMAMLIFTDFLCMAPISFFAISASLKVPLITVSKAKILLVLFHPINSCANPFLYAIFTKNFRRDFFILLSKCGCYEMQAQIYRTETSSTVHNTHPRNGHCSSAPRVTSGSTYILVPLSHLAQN
# Experiment: HTRF assay for measuring cAMP in cells (FSH antagonism)
# Format: cell-based
# Settings: Table 1; hFSHR clone 16 cells (CHO cells stably transfected with the human FSH receptor), in the presence of 1e-9 mol/l hFSH, 37° C. for 2 h; read-out: IC50 (FSH-antagonistic effect in the HTRF assay)
# Protocol: HTRF Assay for Measuring cAMP in Cells
# The method is based on a competitive immunoassay between native cAMP, which has been produced by the cells, and cAMP which is labelled with XL665. The tracer binding was visualized by a monoclonal antibody, anti-cAMP labelled with cryptate [HTRF=homogeneous time-resolved fluorescence].
# The specific signal is inversely proportional to the cAMP concentration of the samples employed.
# The 665 nm/620 nm fluorescence ratio was evaluated.
# The following material was used: 96-well plates for the tissue culture, 96-well plates with black edge and black base (e.g. Fluotrac 600 from Greiner), 96-well plates for the substance dilutions of polypropylene and cAMP Femtomolar (4000 wells Kit, CIS Bio International # 62AM1PEC).
# The following reagents were used: BSA (bovine serum albumin) Fraction V protease-free, IBMX (3-isobutyl-1-methylxanthine), hFSH (human follicle stimulating hormone), Triton X-100 analytical grade, potassium fluoride analytical grade, G 418 (Geneticin) and Accutase.
# Buffer 1 (washing and testing buffer) contained PBS, 1 mM CaCl2, 1 mM MgCl2, 0.2% glucose; 0.1% BSA, 1 mM IBMX.
# Buffer 2 (2× lysis buffer) contained 1% Triton X-100 in PBS (without CaCl2 and MgCl2).
# Buffer 3 (assay buffer) contained 50 mM potassium phosphate buffer (pH 7.0); 800 mM potassium fluoride; 0.2% BSA (always added fresh).
# On day 1, the cells were seeded in 96-well plates (3×10^4 cells per well hFSHR clone 16 cells (CHO cells stably transfected with the human FSH receptor in 150 μl of medium).
# The next day, test substance dilutions were made up. For this purpose, all the substances were diluted in ice-cold buffer 1 (with or without hFSH), and the substance dilutions were placed on ice until applied to the cells.
# The cell supernatant was then aspirated off, and the cells were washed 2× with 200 μl of buffer 1. The cells were treated with 60 μl of the appropriate substance concentrations at 37° C. for 2 h. The cells were then lysed with 60 μl of buffer 2 (put onto the supernatant) (on a plate shaker at RT for 30 min).
# The test conjugates (XL-665 and anti-cAMP cryptate) were diluted in buffer 3 in accordance with the manufacturers' information. The actual mixture for measurement was pipetted into a black 96-well plate (in each case 15 μl of the cell lysate diluted with 35 μl of buffer 1; firstly 25 μl of XL-665 conjugate were pipetted and, after 10 min, 25 μl of the anti-cAMP cryptate were added). This is followed by incubation at RT for 90 minutes. The measurement was carried out in a PheraStar (BMG).
# Tissue Culture Conditions
# Dose-effect curve (hFSH) for the human receptor: 1e-8, 3e-9, 1 e-9, 3e-10, 1 e-10, 3e-11, 1e-11, 3e-12 mol/l.
# The test substances were employed in suitable dilutions in the absence (test for agonism) and in the presence of 1e-9 mol/l hFSH.
# The values of the well ratio were averaged and then entered directly in SigmaPlot versus the concentrations. The maximum and minimum values were determined for each plate, and half the difference is to be regarded as IC50.
row,Compound,IC50
1,"CNC(=O)c1ccc(-c2cc3c(c(C(=O)N[C@@H](CO)Cc4c[nH]c5ccccc45)c2)OCC3)cc1 [Example 65, 5-(4-Methylcarbamoyl-phenyl)-2,3-dihydro-benzofuran-7-carboxylic acid [(R)-1-hydroxymethyl-2-(1H-indol-3-yl)-ethyl]-amide]",2000 nM
2,"CNC(=O)c1cc(F)cc(-c2cc3c(c(C(=O)NC(CO)Cc4c[nH]c5cccc(C)c45)c2)OCCCC3)c1 (centres unmarked) [Example 86, 7-(3-Fluoro-5-methylcarbamoyl-phenyl)-2,3,4,5-tetrahydro-benzo[b]oxepine-9-carboxylic acid [2-hydroxy-1-(4-methyl-1H-indol-3-ylmethyl)-ethyl]-amide]",1500 nM
3,"Cc1cc(C)cc(-c2cc3c(c(C(=O)N[C@@H](CO)Cc4c[nH]c5ccccc45)c2)OCC3)c1 [Example 78, 5-(3,5-Dimethyl-phenyl)-2,3-dihydro-benzofuran-7-carboxylic acid [(R)-1-hydroxymethyl-2-(1H-indol-3-yl)-ethyl]-amide]",3000 nM
4,"COc1ccccc1C#Cc1cc2c(c(C(=O)N[C@@H](CO)Cc3c[nH]c4ccccc34)c1)OCCO2 [Example 85, 7-(2-Methoxy-phenylethynyl)-2,3-dihydro-benzo[1,4]dioxine-5-carboxylic acid [(R)-1-hydroxymethyl-2-(1H-indol-3-yl)-ethyl]-amide]",200 nM
5,"CNC(=O)c1ccc(C#Cc2cc3c(c(C(=O)NC(CO)Cc4c[nH]c5cc(F)ccc45)c2)OCCCC3)cc1 (centres unmarked) [Example 84, 7-(4-Methylcarbamoyl-phenylethynyl)-2,3,4,5-tetrahydro-benzo[b]oxepine-9-carboxylic acid [2-(6-fluoro-1H-indol-3-yl)-1-hydroxymethyl-ethyl]-amide]",50 nM
6,"O=C(N[C@@H](CO)Cc1c[nH]c2ccccc12)c1cc(-c2ccc(O)cc2)cc2c1OCC2 [Example 51, 5-(4-Hydroxy-phenyl)-2,3-dihydro-benzofuran-7-carboxylic acid [(R)-1-hydroxymethyl-2-(1H-indol-3-yl)-ethyl]-amide]",700 nM
7,"CNC(=O)c1cccc(C#Cc2cc3c(c(C(=O)N[C@@H](CO)Cc4c[nH]c5ccccc45)c2)OC(C)(C)C=C3)c1 [Example 11, 2,2-Dimethyl-6-(3-methylcarbamoyl-phenylethynyl)-2H-chromene-8-carboxylic acid [(R)-1-hydroxymethyl-2-(1H-indol-3-yl)-ethyl]-amide]",30 nM
8,"CC(=O)c1cccc(-c2cc3c(c(C(=O)N[C@@H](CO)Cc4c[nH]c5ccccc45)c2)OCC3)c1 [Example 56, 5-(3-Acetyl-phenyl)-2,3-dihydro-benzofuran-7-carboxylic acid [(R)-1-hydroxymethyl-2-(1H-indol-3-yl)-ethyl]-amide]",2000 nM
9,"O=C(N[C@@H](CO)Cc1c[nH]c2ccccc12)c1cc(-c2ccc3c(c2)OCO3)cc2c1OCC2 [Example 23, 5-Benzo[1,3]dioxol-5-yl-2,3-dihydro-benzofuran-7-carboxylic acid [(R)-1-hydroxymethyl-2-(1H-indol-3-yl)-ethyl]-amide]",450 nM
10,"O=C(NC(CO)Cc1c[nH]c2cc(F)ccc12)c1cc(/C=C/c2ccccc2)cc2c1OCCCC2 (centres unmarked) [Example 83, 7-((E)-Styryl)-2,3,4,5-tetrahydro-benzo[b]oxepine-9-carboxylic acid [2-(6-fluoro-1H-indol-3-yl)-1-hydroxymethyl-ethyl]-amide]",350 nM

# Same assay, conditions: Table 2; hFSHR clone 16 cells (CHO cells stably transfected with the human FSH receptor), in the presence of 1e-9 mol/l hFSH, 37° C. for 2 h; read-out: IC50 (FSH-antagonistic effect in the HTRF assay)
row,Compound,IC50
1,"O=C(N[C@@H](CO)Cc1c[nH]c2ccccc12)c1cc(-c2ccc(-c3ccccc3)cc2)cc2c1OCCO2 [Example 92, 7-Biphenyl-4-yl-2,3-dihydro-benzo[1,4]dioxine-5-carboxylic acid [(R)-1-hydroxymethyl-2-(1H-indol-3-yl)-ethyl]-amide]",500 nM
2,"Cc1ccccc1-c1cc2c(c(C(=O)N[C@@H](CO)Cc3c[nH]c4ccccc34)c1)OCCO2 [Example 143, 7-o-Tolyl-2,3-dihydro-benzo[1,4]dioxine-5-carboxylic acid [(R)-1-hydroxymethyl-2-(1H-indol-3-yl)-ethyl]-amide]",9000 nM
3,"COc1ccc(-c2cc3c(c(C(=O)N[C@@H](CO)Cc4c[nH]c5ccccc45)c2)OCCO3)cc1F [Example 109, 7-(3-Fluoro-4-methoxy-phenyl)-2,3-dihydro-benzo[1,4]dioxine-5-carboxylic acid [(R)-1-hydroxymethyl-2-(1H-indol-3-yl)-ethyl]-amide]",950 nM
4,"CN(C)S(=O)(=O)c1ccc(-c2cc3c(c(C(=O)N[C@@H](CO)Cc4c[nH]c5ccccc45)c2)OCCO3)cc1 [Example 123, 7-(4-Dimethylsulfamoyl-phenyl)-2,3-dihydro-benzo[1,4]dioxine-5-carboxylic acid [(R)-1-hydroxymethyl-2-(1H-indol-3-yl)-ethyl]-amide]",2000 nM
5,"CSc1cccc(-c2cc3c(c(C(=O)N[C@@H](CO)Cc4c[nH]c5ccccc45)c2)OCCO3)c1 [Example 100, 7-(3-Methylsulfanyl-phenyl)-2,3-dihydro-benzo[1,4]dioxine-5-carboxylic acid [(R)-1-hydroxymethyl-2-(1H-indol-3-yl)-ethyl]-amide]",900 nM
6,"CNC(=O)c1ccc(-c2cc3c(c(C(=O)NC(CO)Cc4c[nH]c5c(F)cc(F)cc45)c2)OC(C)(C)CC3)cc1Cl (centres unmarked) [Example 190, 6-(3-Chloro-4-methylcarbamoyl-phenyl)-2,2-dimethyl-chroman-8-carboxylic acid [2-(5,7-difluoro-1H-indol-3-yl)-1-hydroxymethyl-ethyl]amide]",70 nM
7,"O=C(N[C@@H](CO)Cc1c[nH]c2ccccc12)c1cc(-c2cccc(Cl)c2)cc2c1OCCO2 [Example 130, 7-(3-Chloro-phenyl)-2,3-dihydro-benzo[1,4]dioxine-5-carboxylic acid [(R)-1-hydroxymethyl-2-(1H-indol-3-yl)-ethyl]-amide]",3000 nM
8,"Nc1cccc(-c2cc3c(c(C(=O)N[C@@H](CO)Cc4c[nH]c5ccccc45)c2)OCCO3)c1 [Example 135, 7-(3-Amino-phenyl)-2,3-dihydro-benzo[1,4]dioxine-5-carboxylic acid [(R)-1-hydroxymethyl-2-(1H-indol-3-yl)-ethyl]-amide]",800 nM
9,"O=C(N[C@@H](CO)Cc1c[nH]c2ccccc12)c1cc(-c2ccc(CO)cc2)cc2c1OCCO2 [Example 96, 7-(4-Hydroxymethyl-phenyl)-2,3-dihydro-benzo[1,4]dioxine-5-carboxylic acid [(R)-1-hydroxymethyl-2-(1H-indol-3-yl)-ethyl]-amide]",1000 nM
10,"CS(=O)(=O)c1cccc(-c2cc3c(c(C(=O)N[C@@H](CO)Cc4c[nH]c5ccccc45)c2)OCCO3)c1 [Example 116, 7-(3-Methanesulfonyl-phenyl)-2,3-dihydro-benzo[1,4]dioxine-5-carboxylic acid [(R)-1-hydroxymethyl-2-(1H-indol-3-yl)-ethyl]-amide]",2000 nM
